From patent publication US10925876B2, “Methods for using triazolo-pyrazinyl soluble guanylate cyclase activators in fibrotic disorders” (Merck Sharp & Dohme Corp., priority 2016, dated 2021) come the findings set out here.

This assay concerns the target T1, sGC α1/β1 heterodimer (Homo sapiens, UniProt Q02108+Q02153).
T1 construct: expressed in transfected cells
T1 sequence (Q02108 1-690): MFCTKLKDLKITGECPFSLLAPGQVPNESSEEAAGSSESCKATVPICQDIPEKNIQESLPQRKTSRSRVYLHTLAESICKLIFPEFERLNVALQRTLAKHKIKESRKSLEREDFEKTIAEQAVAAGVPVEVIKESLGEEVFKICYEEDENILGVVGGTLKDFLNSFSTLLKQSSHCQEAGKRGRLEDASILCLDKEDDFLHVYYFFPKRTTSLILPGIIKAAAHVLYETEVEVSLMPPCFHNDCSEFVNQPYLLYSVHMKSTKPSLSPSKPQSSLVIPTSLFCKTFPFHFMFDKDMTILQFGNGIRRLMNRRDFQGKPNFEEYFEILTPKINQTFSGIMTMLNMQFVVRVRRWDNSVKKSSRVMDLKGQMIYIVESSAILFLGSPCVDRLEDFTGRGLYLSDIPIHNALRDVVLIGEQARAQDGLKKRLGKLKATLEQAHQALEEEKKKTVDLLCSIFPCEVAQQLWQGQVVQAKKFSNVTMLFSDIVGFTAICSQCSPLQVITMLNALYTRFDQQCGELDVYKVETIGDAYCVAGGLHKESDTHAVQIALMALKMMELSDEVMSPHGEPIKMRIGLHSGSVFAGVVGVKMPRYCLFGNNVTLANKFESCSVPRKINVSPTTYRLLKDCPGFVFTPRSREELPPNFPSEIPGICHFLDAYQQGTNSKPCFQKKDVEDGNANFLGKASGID
T1 sequence (Q02153 1-619): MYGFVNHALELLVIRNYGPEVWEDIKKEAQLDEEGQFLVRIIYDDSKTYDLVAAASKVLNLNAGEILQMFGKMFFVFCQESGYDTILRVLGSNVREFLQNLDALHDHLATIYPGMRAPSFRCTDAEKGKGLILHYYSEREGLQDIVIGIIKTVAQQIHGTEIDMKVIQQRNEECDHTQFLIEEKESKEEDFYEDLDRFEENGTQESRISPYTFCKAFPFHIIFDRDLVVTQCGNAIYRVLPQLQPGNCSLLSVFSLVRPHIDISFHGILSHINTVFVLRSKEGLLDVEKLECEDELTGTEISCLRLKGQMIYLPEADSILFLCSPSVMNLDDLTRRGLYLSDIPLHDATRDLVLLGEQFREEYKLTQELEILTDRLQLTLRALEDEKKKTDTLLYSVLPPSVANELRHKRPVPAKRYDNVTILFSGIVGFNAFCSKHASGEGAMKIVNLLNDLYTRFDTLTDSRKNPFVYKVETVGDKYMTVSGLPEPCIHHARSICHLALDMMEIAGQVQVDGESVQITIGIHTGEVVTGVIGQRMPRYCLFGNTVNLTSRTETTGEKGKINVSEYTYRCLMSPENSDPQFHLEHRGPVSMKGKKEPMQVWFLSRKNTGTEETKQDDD
Description: Cell-Based sGC Functional Assay (CASA Assay), cGMP generation in CHO-K1/sGC cells. The note with it: maximum cGMP production of Compound A set to 100% activation, read-out: % Act. (percent activation relative to Compound A). The text has this:
sGC is a heme-containing enzyme that converts GTP to secondary messenger cGMP. Increases in cGMP levels affect several physiological processes including vasorelaxation through multiple downstream pathways. […] Heme-dependent activators (HDAs) preferentially activate sGC containing a ferrous heme group. To determine the effect of sGC activators on enzyme activity, the CASA assay was developed to monitor the generation of cGMP in a cell line that stably expresses the heterodimeric sGC protein.
A CHO-K1 cell line stably expressing the sGC α1/β1 heterodimer was generated using a standard transfection protocol. CHO-K1 cells were transfected with plasmids pIREShyghsGCα1 and pIRESneo-hsGCβ1 simultaneously using FUGENE reagent. Clones that stably express both subunits were selected with hygromycin and neomycin for ˜2 weeks. Clone #7 was chosen for the assay and was designated CHO-K1/sGC. CHO-K1/sGC cells were maintained in F-K12 medium containing 10% heat-inactivated Fetal Bovine Serum (FBS), 100 μg/mL penicillin/streptomycin, 0.5 mg/mL hygromycin and 0.25 mg/mL G418. The cells were then cryopreserved in LN2. On the day of the assay, cells thawed and resuspended in EBSS Assay Buffer (Sigma, E3024) supplemented with 5 mM MgCl2, 10 mM HEPES (4-(2-hydroxyethyl)piperazine-1-ethanesulfonic acid) and 0.05% BSA (bovine serum albumin) (EAB) and cell density was then adjusted to 4×10^5/mL with EAB. IBMX (3-isobutyl-1-methylxanthin, 0.5 mM) was added to inhibit degradation of cGMP. Compounds were diluted from DMSO stock solutions and added to the assay at a final DMSO concentration of 2.5%. Cells were incubated with compounds in the presence and absence of 1 μM of Diethylenetriamine/nitric oxide adduct (DETA-NO; Sigma, 17018) for 1 hr at 37° C. At the end of the incubation period, the reaction was terminated and the cells were lysed with the detection reagents from Cisbio Kits. The level of intracellular cGMP was determined using an HTRF-based assay kit (CisBio, 62GM2PEC), which detects the displacement of a fluorescence labeled cGMP from its specific antibody. The cGMP produced by test compounds was directly compared to the maximum cGMP production (this value was set to equal 100% activation.) of the published sGC-HDA Compound A:
[drawing 298] (Example 1 in WO 2010/065275, published Jun. 10, 2010). The test compounds' activities were then expressed as a percentage of Compound A, the standard in every experiment. This percent activation was calculated either in the presence or absence of DETA-NO which was then plotted. IP and maximum fold induction was derived using ADA analysis software for 4P fit.
As to `CC(F)(F)c1ccc(C2(C)C(=O)Nc3nc(-c4cn5ncnc5c(CCC(F)(F)C(F)(F)F)n4)nc(N)c32)cn1` (racemic) [Example 16B, 4-amino-5-(6-(1,1-difluoroethyl)pyridin-3-yl)-5-methyl-2-(8-(3,3,4,4,4-pentafluorobutyl)-[1,2,4]triazolo[1,5-a]pyrazin-6-yl)-5H-pyrrolo[2,3-d]pyrimidin-6(7H)-one], the Emax amounted to 77%. Under `Cc1cnc(C2(C3CC3)C(=O)Nc3nc(-c4cn5ncnc5c(CCC(F)(F)C(F)(F)F)n4)nc(N)c32)cn1` (racemic) [Example 21B, 4-amino-5-cyclopropyl-5-(5-methylpyrazin-2-yl)-2-(8-(3,3,4,4,4-pentafluorobutyl)-[1,2,4]triazolo[1,5-a]pyrazin-6-yl)-5H-pyrrolo[2,3-d]pyrimidin-6(7H)-one] stands 99%. Take `CC(F)(F)c1ccc(C2(C)C(=O)Nc3nc(-c4cn5ncnc5c(CCCC(F)(F)F)n4)nc(N)c32)cn1` (racemic) [Example 45B, 4-amino-5-(6-(1,1-difluoroethyl)pyridin-3-yl)-5-methyl-2-(8-(4,4,4-trifluorobutyl)-[1,2,4]triazolo[1,5-a]pyrazin-6-yl)-5H-pyrrolo[2,3-d]pyrimidin-6(7H)-one]: the Emax is 156%. For `Cc1ccc(C2(C3CC3)C(=O)Nc3nc(-c4cn5ncnc5c(CCCC(F)(F)F)n4)nc(N)c32)nc1` (racemic) [Example 47B, 4-amino-5-cyclopropyl-5-(5-methylpyridin-2-yl)-2-(8-(4,4,4-trifluorobutyl)-[1,2,4]triazolo[1,5-a]pyrazin-6-yl)-5H-pyrrolo[2,3-d]pyrimidin-6(7H)-one], the Emax stood at 114%. Take `Cc1nc(C2(C)C(=O)Nc3nc(-c4cn5ncnc5c(CCCC(F)(F)F)n4)nc(N)c32)ccc1C(F)(F)F` (racemic) [Example 49B, 4-amino-5-methyl-5-(6-methyl-5-(trifluoromethyl)pyridin-2-yl)-2-(8-(4,4,4-trifluorobutyl)-[1,2,4]triazolo[1,5-a]pyrazin-6-yl)-5H-pyrrolo[2,3-d]pyrimidin-6(7H)-one]: the Emax is 127%. Under `CC1(c2ncc(C(F)(F)F)cn2)C(=O)Nc2nc(-c3cn4ncnc4c(CCCC(F)(F)F)n3)nc(N)c21` (racemic) [Example 51B, 4-amino-5-methyl-2-(8-(4,4,4-trifluorobutyl)-[1,2,4]triazolo[1,5-a]pyrazin-6-yl)-5-(5-(trifluoromethyl)pyrimidin-2-yl)-5H-pyrrolo[2,3-d]pyrimidin-6(7H)-one] stands 144%; under `CCCCc1nc(-c2nc(N)c3c(n2)NC(=O)C3(c2ccc(C)cn2)C2CC2)cn2ncnc12` (racemic) [Example 72B, 4-amino-2-(8-butyl-[1,2,4]triazolo[1,5-a]pyrazin-6-yl)-5-cyclopropyl-5-(5-methylpyridin-2-yl)-5H-pyrrolo[2,3-d]pyrimidin-6(7H)-one], 82%. With `Cc1nnc(C2(C)C(=O)Nc3nc(-c4cn5ncnc5c(CCC(F)(F)C(F)(F)F)n4)nc(N)c32)o1` (single isomer, unassigned) [Example 97B, 4-Amino-5-methyl-5-(5-methyl-1,3,4-oxadiazol-2-yl)-2-(8-(3,3,4,4,4-pentafluorobutyl)-[1,2,4]triazolo[1,5-a]pyrazin-6-yl)-5H-pyrrolo[2,3-d]pyrimidin-6(7H)-one], the Emax was found to be 106%. With `Nc1nc(-c2cn3ncnc3c(CCCC(F)(F)F)n2)nc2c1C(c1ncc(C(F)(F)F)cn1)(C1CC1)C(=O)N2` (single isomer, unassigned) [Example 180B, 4-amino-5-cyclopropyl-2-(8-(4,4,4-trifluorobutyl)-[1,2,4]triazolo[1,5-a]pyrazin-6-yl)-5-(5-(trifluoromethyl)pyrimidin-2-yl)-5,7-dihydro-6H-pyrrolo[2,3-d]pyrimidin-6-one], the Emax stood at 97%. Consider `CC1(c2ccc(Cl)c(F)c2)C(=O)Nc2nc(-c3cn4ncnc4c(CCC(F)(F)C(F)(F)F)n3)nc(N)c21` (stereo not drawn) [Example 5B, 4-amino-5-(4-chloro-3-fluorophenyl)-5-methyl-2-(8-(3,3,4,4,4-pentafluorobutyl)-[1,2,4]triazolo[1,5-a]pyrazin-6-yl)-5H-pyrrolo[2,3-d]pyrimidin-6(7H)-one], for which the Emax turned out to be 147%. With `Nc1nc(-c2cn3ncnc3c(CCC(F)(F)C(F)(F)F)n2)nc2c1C(c1ccc(F)c(F)c1)(C1CC1)C(=O)N2` (stereo not drawn) [Example 6A, 4-amino-5-cyclopropyl-5-(3,4-difluorophenyl)-2-(8-(3,3,4,4,4-pentafluorobutyl)-[1,2,4]triazolo[1,5-a]pyrazin-6-yl)-5H-pyrrolo[2,3-d]pyrimidin-6(7H)-one], the Emax came to 140%. `CC1(c2ccc(Cl)cc2)C(=O)Nc2nc(-c3cn4ncnc4c(CCC(F)(F)C(F)(F)F)n3)nc(N)c21` (stereo not drawn) [Example 10A, 4-amino-5-(4-chlorophenyl)-5-methyl-2-(8-(3,3,4,4,4-pentafluorobutyl)-[1,2,4]triazolo[1,5-a]pyrazin-6-yl)-5H-pyrrolo[2,3-d]pyrimidin-6(7H)-one]: the Emax amounted to 137%. With `CC1(c2cccc(F)c2)C(=O)Nc2nc(-c3cn4ncnc4c(CCC(F)(F)C(F)(F)F)n3)nc(N)c21` (stereo not drawn) [Example 14B, 4-amino-5-(3-fluorophenyl)-5-methyl-2-(8-(3,3,4,4,4-pentafluorobutyl)-[1,2,4]triazolo[1,5-a]pyrazin-6-yl)-5H-pyrrolo[2,3-d]pyrimidin-6(7H)-one], the Emax amounted to 90%. As for `Nc1nc(-c2cn3ncnc3c(CCC(F)(F)C(F)(F)F)n2)nc2c1C(c1ccc(C(F)(F)F)cn1)(C1CC1)C(=O)N2` (stereo not drawn) [Example 15A, 4-amino-5-cyclopropyl-2-(8-(3,3,4,4,4-pentafluorobutyl)-[1,2,4]triazolo[1,5-a]pyrazin-6-yl)-5-(5-(trifluoromethyl)pyridin-2-yl)-5H-pyrrolo[2,3-d]pyrimidin-6(7H)-one], the Emax stood at 139%. In the case of `Cc1ccc(C2(C)C(=O)Nc3nc(-c4cn5ncnc5c(CCC(F)(F)C(F)(F)F)n4)nc(N)c32)nc1` (stereo not drawn) [Example 19B, 4-amino-5-methyl-5-(5-methylpyridin-2-yl)-2-(8-(3,3,4,4,4-pentafluorobutyl)-[1,2,4]triazolo[1,5-a]pyrazin-6-yl)-5H-pyrrolo[2,3-d]pyrimidin-6(7H)-one], the Emax is 71%.
